Data taken from patent publication US4877795A, “4H-quinolizin-4-one compounds useful for the treatment of allergic bronchial asthma, allergic rhinitis atropic dermatitis and the like” (Kissei Pharmaceutical Co., Ltd., priority 1987, dated 1989).

Tests used:
[1] = test system: IgE; assay: Determination of Igs produced in in vitro culture: inhibition of IgE secreted by spleen cells (adoptive secondary immune response to DNP-As), ELISA; format: cell-based, BALB/c mice; settings: Mus musculus, 96 h, 4 days culture; for inhibition at 40 µg/mL: 40.0 μg/ml; for inhibition at 2.5 µg/mL: 2.5 μg/ml; for inhibition at 1 µg/mL: 1.0 μg/ml; for inhibition at 0.25 µg/mL: 0.25 μg/ml; for inhibition at 5 µg/mL: 5.0 μg/ml
Protocol: (§1) Determination of Igs produced in in vitro culture
(§2) BALB/c mice were immunized intraperitoneally with 5 μg of DNP-As adsorbed in 4 mg aluminum hydroxide gel. 4 weeks after the immunization, the spleens were excised from the mice and 5×10^7 spleen cells were transferred intravenously into the recipient mice which had been exposed to 600 rad of X-ray irradiation. Immediately after cell transfer, the recipients were then immunized intraperitoneally with 5 μg of DNP-As adsorbed in 4 mg aluminum hydroxide gel to induce adoptive secondary immune response. Further 4 weeks after the immunization of recipients, the spleens were excised from them and the spleen cell suspensions 5×10^6 cells/ml were cultured with or without a compound to be tested in 96-well micro plates at 37° C. for 4 days. IgE and IgG secreted into the culture supernatant was each determined correspondingly by ELISA and the inhibitory effect was calculated according to the following equation. [formula]

[2] = test system: IgG; assay: Determination of Igs produced in in vitro culture: inhibition of IgG secreted by spleen cells (adoptive secondary immune response to DNP-As), ELISA; format: cell-based, BALB/c mice; settings: Mus musculus, 96 h, 4 days culture; for inhibition at 40 µg/mL: 40.0 μg/ml; for inhibition at 2.5 µg/mL: 2.5 μg/ml; for inhibition at 1 µg/mL: 1.0 μg/ml; for inhibition at 0.25 µg/mL: 0.25 μg/ml; for inhibition at 5 µg/mL: 5.0 μg/ml
Protocol: as §1, §2

Work on CSc1c(C#N)c(=O)n2ccccc2c1C(=O)OCc1ccc2c(c1)OCO2 [S-26, Piperonyl 3-cyano-2-methylthio-4H-quinolizin-4-one-1-carboxylate] yielded an inhibition at 40 µg/mL [1] of 48% and an inhibition at 40 µg/mL [2] of 17%.

COc1cc(COC(=O)c2c(SC)c(C#N)c(=O)n3ccccc23)cc(OC)c1OC [S-27, 3',4',5'-Trimethoxybenzyl 3-cyano-2-methylthio-4H-quinolizin-4-one-1-carboxylate] showed an inhibition at 2.5 µg/mL [1] of 56% and an inhibition at 2.5 µg/mL [2] of 16%.

For CSc1c(C#N)c(=O)n2ccc(C)cc2c1C(=O)OCc1ccccc1 [S-28, Benzyl 3-cyano-8-menthyl-2-methylthio-4H-quinolizin-4-one-1-carboxylate], the inhibition at 2.5 µg/mL [1] was 49% and the inhibition at 2.5 µg/mL [2] was 24%.

In the case of CSc1c(C#N)c(=O)n2ccccc2c1C(=O)OCc1ccccc1 [S-29, Benzyl 3-cyano-2-methylthio-4H-quinolizin-4-one-1-carboxylate], the inhibition at 1 µg/mL [1] is reported as 69% and the inhibition at 1 µg/mL [2] is reported as 31%.

CSc1c(C#N)c(=O)n2ccccc2c1C(=O)OC(C)c1ccc(Br)cc1 (centres unmarked) [S-30, 1'-(4-Bromophenyl)ethyl 3-cyano-2-methylthio-4H-quinolizin-4-one-1-carboxylate] showed an inhibition at 0.25 µg/mL [1] of 45% and an inhibition at 0.25 µg/mL [2] of 27%.

In the case of COc1ccc(COC(=O)c2c(SC)c(C#N)c(=O)n3ccccc23)cc1 [S-31, 4'-Methoxybenzyl 3-cyano-2-methylthio-4H-quinolizin-4-one-1-carboxylate], the inhibition at 40 µg/mL [1] is reported as 34% and the inhibition at 40 µg/mL [2] is reported as 3%.

Molecule CSc1c(C#N)c(=O)n2ccccc2c1C(=O)OC(C)c1ccc(C#N)cc1 (centres unmarked) [S-32, 1'-(4-Cyanophenyl)ethyl 3-cyano-2-methylthio-4H-quinolizin-4-one-1-carboxylate] has an inhibition at 1 µg/mL [1] of 52% and an inhibition at 1 µg/mL [2] of 28%.

CCOc1ccc(COC(=O)c2c(SC)c(C#N)c(=O)n3ccccc23)cc1 [S-33, 4'-Ethoxybenzyl 3-cyano-2-methylthio-4H-quinolizin-4-one-1-carboxylate] gave an inhibition at 20 µg/mL ([1]; 20.0 μg/ml) of 81% and an inhibition at 20 µg/mL ([2]; 20.0 μg/ml) of 47%.

In the case of CSc1c(C#N)c(=O)n2ccccc2c1C(=O)OCc1ccc(F)cc1 [S-34, 4'-Fluorobenzyl 3-cyano-2-methylthio-4H-quinolizin-4-one-1-carboxylate], the inhibition at 0.25 µg/mL [1] is reported as 52% and the inhibition at 0.25 µg/mL [2] is reported as 31%.

With COc1cccc(COC(=O)c2c(SC)c(C#N)c(=O)n3ccccc23)c1 [S-35, 3'-Methoxybenzyl 3-cyano-2-methylthio-4H-quinolizin-4-one-1-carboxylate] the inhibition at 1 µg/mL [1] was 64% and the inhibition at 1 µg/mL [2] was 45%.

With CSc1c(C#N)c(=O)n2ccccc2c1C(=O)OCc1ccc(C(C)C)cc1 [S-36, 4'-Isopropylbenzyl 3-cyano-2-methylthio-4H-quinolizin-4-one-1-carboxylate] the inhibition at 0.25 µg/mL [1] was 33% and the inhibition at 0.25 µg/mL [2] was 8%.

COc1ccccc1COC(=O)c1c(SC)c(C#N)c(=O)n2ccccc12 [S-37, 2'-Methoxybenzyl 3-cyano-2-methylthio-4H-quinolizin-4-one-1-carboxylate] showed an inhibition at 0.25 µg/mL [1] of 36% and an inhibition at 0.25 µg/mL [2] of 11%.

Molecule CSc1c(C#N)c(=O)n2ccccc2c1C(=O)OCc1cccc(Cl)c1 [S-38, 3'-Chlorobenzyl 3-cyano-2-methylthio-4H-quinolizin-4-one-1-carboxylate] has an inhibition at 1 µg/mL [1] of 77% and an inhibition at 1 µg/mL [2] of 43%.

For CSc1c(C#N)c(=O)n2ccccc2c1C(=O)OCc1ccccc1Cl [S-39, 2'-Chlorobenzyl 3-cyano-2-methylthio-4H-quinolizin-4-one-1-carboxylate], the inhibition at 1 µg/mL [1] was 65% and the inhibition at 1 µg/mL [2] was 31%.

Molecule CSc1c(C#N)c(=O)n2ccccc2c1C(=O)OCc1ccc(-c2ccccc2)cc1 [S-40, 4'-phenylbenzyl 3-cyano-2-methylthio-4H-quinolizin-4-one-1-carboxylate] has an inhibition at 0.25 µg/mL [1] of 53% and an inhibition at 0.25 µg/mL [2] of 34%.

With CSc1c(C#N)c(=O)n2ccccc2c1C(=O)OCc1ccc2ccccc2c1 [S-41, 2'-Napthylmethyl 3-cyano-2-methylthio-4H-quinolizin-4-one-1-carboxylate] the inhibition at 1 µg/mL [1] was 86% and the inhibition at 1 µg/mL [2] was 68%.

For CSc1c(C#N)c(=O)n2ccccc2c1C(=O)OCc1cccc2ccccc12 [S-42, 1'-Naphthylmethyl 3-cyano-2-methylthio-4H-quinolizin-4-one-1-carboxylate], the inhibition at 1 µg/mL [1] was 75% and the inhibition at 1 µg/mL [2] was 43%.

CSc1c(C#N)c(=O)n2ccccc2c1C(=O)OC(C)Cc1ccccc1 (centres unmarked) [S-43, 1'-Methyl-2'-phenylethyl 3-cyano-2-methylthio-4H-quinolizin-4-one-1-carboxylate] showed an inhibition at 1 µg/mL [1] of 75% and an inhibition at 1 µg/mL [2] of 46%.

Molecule CSc1c(C#N)c(=O)n2ccccc2c1C(=O)OCC(c1ccccc1)c1ccccc1 [S-44, 2',2'-Diphenylethyl 3-cyano-2-methylthio-4H-quinolizin-4-one-1-carboxylate] has an inhibition at 1 µg/mL [1] of 54% and an inhibition at 1 µg/mL [2] of 18%.

Work on CSc1c(C#N)c(=O)n2ccccc2c1C(=O)OCCCc1ccccc1 [S-45, 3'-Phenylpropyl 3-cyano-2-methylthio-4H-quinolizin-4-one-1-carboxylate] yielded an inhibition at 5 µg/mL [1] of 71% and an inhibition at 5 µg/mL [2] of 16%.

CSc1c(C#N)c(=O)n2ccccc2c1C(=O)OC(C)CCc1ccccc1 (centres unmarked) [S-46, 1'-Methyl-3'-phenylpropyl 3-cyano-2-methylthio-4H-quinolizin-4-one-1-carboxylate] showed an inhibition at 1 µg/mL [1] of 90% and an inhibition at 1 µg/mL [2] of 79%.

For CSc1c(C#N)c(=O)n2ccccc2c1C(=O)OC/C=C/c1ccccc1 [S-47, trans-Cinnamyl 3-cyano-2-methylthio-4H-quinolizin-4-one-1-carboxylate], the inhibition at 40 µg/mL [1] was 60% and the inhibition at 40 µg/mL [2] was 28%.

With CSc1c(C#N)c(=O)n2ccccc2c1C(=O)OCCc1ccccc1 [S-48, 2'-Phenylethyl 3-cyano-2-methylthio-4H-quinolizin-4-one-1-carboxylate] the inhibition at 1 µg/mL [1] was 57% and the inhibition at 1 µg/mL [2] was 15%.

Molecule CSc1c(C#N)c(=O)n2ccccc2c1C(=O)OCCCCc1ccccc1 [S-49, 4'-Phenylbutyl 3-cyano-2-methylthio-4H-quinolizin-4-one-1-carboxylate] has an inhibition at 1 µg/mL [1] of 80% and an inhibition at 1 µg/mL [2] of 56%.

Molecule CSc1c(C#N)c(=O)n2ccc(C)cc2c1C(=O)OCCc1ccccc1 [S-50, 2'-Phenylethyl 3-cyano-8-methyl-2-methylthio-4H-quinolizin-4-one-1-carboxylate] has an inhibition at 1 µg/mL [1] of 64% and an inhibition at 1 µg/mL [2] of 42%.

Work on CSc1c(C#N)c(=O)n2ccc(C)cc2c1C(=O)OCCCc1ccccc1 [S-51, 3'-Phenylpropyl 3-cyano-8methyl-2-methylthio-4H-quinolizin-4-one-1-carboxylate] yielded an inhibition at 1 µg/mL [1] of 65% and an inhibition at 1 µg/mL [2] of 43%.

CCSc1c(C#N)c(=O)n2ccccc2c1C(=O)OCCCc1ccccc1 [S-52, 3'-Phenylpropyl 3-cyano-2-ethylthio-4H-quinolizin-4-one-1-carboxylate] gave an inhibition at 0.25 µg/mL [1] of 46% and an inhibition at 0.25 µg/mL [2] of 17%.

Molecule CSc1c(C#N)c(=O)n2ccccc2c1C(=O)OCCOc1ccc(Cl)cc1 [S-53, 2'-(4-Chorophenoxy)ethyl 3-cyano-2-methylthio-4H-quinolizin-4-one-1-carboxylate] has an inhibition at 0.25 µg/mL [1] of 69% and an inhibition at 0.25 µg/mL [2] of 49%.

With CSc1c(C#N)c(=O)n2ccccc2c1C(=O)OCCCOc1ccccc1 [S-54, 3'-Phenoxypropyl 3-cyano-2-methylthio-4H-quinolizin-4-one-1-carboxylate] the inhibition at 1 µg/mL [1] was 73% and the inhibition at 1 µg/mL [2] was 50%.

Molecule CSc1c(C#N)c(=O)n2ccccc2c1C(=O)OCCSc1ccccc1 [S-55, 2'-Phenylthioethyl 3-cyano-2-methylthio-4H-quinolizin-4-one-1-carboxylate] has an inhibition at 0.25 µg/mL [1] of 51% and an inhibition at 0.25 µg/mL [2] of 29%.

In the case of C=C(C)CSc1c(C#N)c(=O)n2ccccc2c1C(=O)OCC [S-56], the inhibition at 5 µg/mL [1] is reported as 70% and the inhibition at 5 µg/mL [2] is reported as 30%.

In the case of CCOC(=O)c1c(SC(C)C)c(C#N)c(=O)n2ccccc12 [S-57, Ethyl 3-cyano-2-isopropylthio-4H-quinolizin-4-one-1-carboxylate], the inhibition at 5 µg/mL [1] is reported as 53% and the inhibition at 5 µg/mL [2] is reported as 32%.

In the case of CCCCSc1c(C#N)c(=O)n2ccccc2c1C(=O)OCC [S-58, Ethyl 3-cyano-2-butylthio-4H-quinolizin-4-one-1-carboxylate], the inhibition at 10 µg/mL ([1]; 10.0 μg/ml) is reported as 89% and the inhibition at 10 µg/mL ([2]; 10.0 μg/ml) is reported as 60%.

CCOC(=O)c1c(SCc2ccccc2)c(C#N)c(=O)n2ccccc12 [S-59, Ethyl 3-cyano-2-benzylthio-4H-quinolizin-4-one-1-carboxylate] gave an inhibition at 40 µg/mL [1] of 74% and an inhibition at 40 µg/mL [2] of 49%.

Molecule CSc1c(C#N)c(=O)n2ccccc2c1C(=O)N(Cc1ccccc1)Cc1ccccc1 [S-60, 3-Cyano-N,N-dibenzyl-2-methylthio-4H-quinolizin-4-one-1-carboxamide] has an inhibition at 1 µg/mL [1] of 58% and an inhibition at 1 µg/mL [2] of 25%.

In the case of CSc1c(C#N)c(=O)n2ccccc2c1C(=O)N(C1CCCCC1)C1CCCCC1 [S-61, 3-Cyano-N,N-dicyclohexyl-2-methylthio-4H-quinolizin-4-one-1-carboxamide], the inhibition at 2.5 µg/mL [1] is reported as 93% and the inhibition at 2.5 µg/mL [2] is reported as 48%.

CCN(CC)C(=O)c1c(SC)c(C#N)c(=O)n2ccccc12 [S-62, 3-Cyano-N,N-diethyl-2-methylthio-4H-quinolizin-4-one-1-carboxamide] showed an inhibition at 40 µg/mL [1] of 64% and an inhibition at 40 µg/mL [2] of 36%.
